pIC50: −log10 of the molar value.
target: human fatty acid synthase FASN (Homo sapiens (Human), UniProt P49327); experiment: Biochemical activity testing of human fatty acid synthase FASN (NADPH fluorescence intensity enzyme assay); conditions: human recombinant full-length fatty acid synthase
Description: Biochemical activity testing of human fatty acid synthase FASN
Fatty acid synthase FASN is a multifunctional enzyme with seven catalytic activities thereby synthesising long chain fatty acids especially palmitoyl-CoA in the presence of co-factor NADPH starting from the substrates acetyl-CoA and malonyl-CoA. The reductive synthesis is realized by the oxidation of NADPH to NADP. Since NADPH has a high fluorescence intensity quantum yield compared to NADP with excitation at 340 nm and emission at 460 nm, the reaction can be monitored via the decrease in fluorescence intensity. The biochemical FASN activity testing was performed as 384 well two-time-point kinetic fluorescence intensity assay format in Greiner low volume medium binding 384-well black microtiter plates in a total assay volume of 8 μl and was used for high throughput screen. In each well 3 μl 40 nM human recombinant full-length fatty acid synthase (produced in-house in SF9 cells) were dispensed in the following assay buffer: 50 mM potassium phosphate buffer pH 7.0, 0.005% (w/v) BSA, 2 mM Glutathione, 0.02% Tween-20. Then 2 μl of 200 μM NADPH in assay buffer were added, followed by the addition of the test compounds in 10 dilution concentrations starting with 30 μM (final concentration) to get a final DMSO content of 1% (v/v). The mixture was incubated for at least 15 min at room temperature. After the pre-incubation the enzymatic reaction was started by the addition of 2 μl substrate solution (80 μM acetyl-CoA, 240 μM malonyl-CoA). A first fluorescence intensity measurement (time point one) was performed with an Envision multimode reader (Perkin Elmer LAS Germany GmbH) at excitation wavelength 340 nm (lamp mode) and emission wavelength 460 nm. The reaction was incubated for 30 minutes at room temperature. After this the fluorescence intensity was measured again in the Envision using the same parameters as described above (second time point measurement). The data were analysed by subtracting the first time point measurement value from the second time point measurement value (after the enzymatic reaction). The differences of the emission signals were determined. These reflect directly the conversion rate of NADPH. The full value used was the inhibitor-free reaction. A pharmacological zero value was used like GSK837149A (Sigma-Aldrich) in a final concentration of 5-10 μM. The inhibitory values (IC50) were determined using either the program Symyx Assay Explorer® or Condosseo® from GeneData.

human fatty acid synthase FASN, sequence (P49327 whole entry): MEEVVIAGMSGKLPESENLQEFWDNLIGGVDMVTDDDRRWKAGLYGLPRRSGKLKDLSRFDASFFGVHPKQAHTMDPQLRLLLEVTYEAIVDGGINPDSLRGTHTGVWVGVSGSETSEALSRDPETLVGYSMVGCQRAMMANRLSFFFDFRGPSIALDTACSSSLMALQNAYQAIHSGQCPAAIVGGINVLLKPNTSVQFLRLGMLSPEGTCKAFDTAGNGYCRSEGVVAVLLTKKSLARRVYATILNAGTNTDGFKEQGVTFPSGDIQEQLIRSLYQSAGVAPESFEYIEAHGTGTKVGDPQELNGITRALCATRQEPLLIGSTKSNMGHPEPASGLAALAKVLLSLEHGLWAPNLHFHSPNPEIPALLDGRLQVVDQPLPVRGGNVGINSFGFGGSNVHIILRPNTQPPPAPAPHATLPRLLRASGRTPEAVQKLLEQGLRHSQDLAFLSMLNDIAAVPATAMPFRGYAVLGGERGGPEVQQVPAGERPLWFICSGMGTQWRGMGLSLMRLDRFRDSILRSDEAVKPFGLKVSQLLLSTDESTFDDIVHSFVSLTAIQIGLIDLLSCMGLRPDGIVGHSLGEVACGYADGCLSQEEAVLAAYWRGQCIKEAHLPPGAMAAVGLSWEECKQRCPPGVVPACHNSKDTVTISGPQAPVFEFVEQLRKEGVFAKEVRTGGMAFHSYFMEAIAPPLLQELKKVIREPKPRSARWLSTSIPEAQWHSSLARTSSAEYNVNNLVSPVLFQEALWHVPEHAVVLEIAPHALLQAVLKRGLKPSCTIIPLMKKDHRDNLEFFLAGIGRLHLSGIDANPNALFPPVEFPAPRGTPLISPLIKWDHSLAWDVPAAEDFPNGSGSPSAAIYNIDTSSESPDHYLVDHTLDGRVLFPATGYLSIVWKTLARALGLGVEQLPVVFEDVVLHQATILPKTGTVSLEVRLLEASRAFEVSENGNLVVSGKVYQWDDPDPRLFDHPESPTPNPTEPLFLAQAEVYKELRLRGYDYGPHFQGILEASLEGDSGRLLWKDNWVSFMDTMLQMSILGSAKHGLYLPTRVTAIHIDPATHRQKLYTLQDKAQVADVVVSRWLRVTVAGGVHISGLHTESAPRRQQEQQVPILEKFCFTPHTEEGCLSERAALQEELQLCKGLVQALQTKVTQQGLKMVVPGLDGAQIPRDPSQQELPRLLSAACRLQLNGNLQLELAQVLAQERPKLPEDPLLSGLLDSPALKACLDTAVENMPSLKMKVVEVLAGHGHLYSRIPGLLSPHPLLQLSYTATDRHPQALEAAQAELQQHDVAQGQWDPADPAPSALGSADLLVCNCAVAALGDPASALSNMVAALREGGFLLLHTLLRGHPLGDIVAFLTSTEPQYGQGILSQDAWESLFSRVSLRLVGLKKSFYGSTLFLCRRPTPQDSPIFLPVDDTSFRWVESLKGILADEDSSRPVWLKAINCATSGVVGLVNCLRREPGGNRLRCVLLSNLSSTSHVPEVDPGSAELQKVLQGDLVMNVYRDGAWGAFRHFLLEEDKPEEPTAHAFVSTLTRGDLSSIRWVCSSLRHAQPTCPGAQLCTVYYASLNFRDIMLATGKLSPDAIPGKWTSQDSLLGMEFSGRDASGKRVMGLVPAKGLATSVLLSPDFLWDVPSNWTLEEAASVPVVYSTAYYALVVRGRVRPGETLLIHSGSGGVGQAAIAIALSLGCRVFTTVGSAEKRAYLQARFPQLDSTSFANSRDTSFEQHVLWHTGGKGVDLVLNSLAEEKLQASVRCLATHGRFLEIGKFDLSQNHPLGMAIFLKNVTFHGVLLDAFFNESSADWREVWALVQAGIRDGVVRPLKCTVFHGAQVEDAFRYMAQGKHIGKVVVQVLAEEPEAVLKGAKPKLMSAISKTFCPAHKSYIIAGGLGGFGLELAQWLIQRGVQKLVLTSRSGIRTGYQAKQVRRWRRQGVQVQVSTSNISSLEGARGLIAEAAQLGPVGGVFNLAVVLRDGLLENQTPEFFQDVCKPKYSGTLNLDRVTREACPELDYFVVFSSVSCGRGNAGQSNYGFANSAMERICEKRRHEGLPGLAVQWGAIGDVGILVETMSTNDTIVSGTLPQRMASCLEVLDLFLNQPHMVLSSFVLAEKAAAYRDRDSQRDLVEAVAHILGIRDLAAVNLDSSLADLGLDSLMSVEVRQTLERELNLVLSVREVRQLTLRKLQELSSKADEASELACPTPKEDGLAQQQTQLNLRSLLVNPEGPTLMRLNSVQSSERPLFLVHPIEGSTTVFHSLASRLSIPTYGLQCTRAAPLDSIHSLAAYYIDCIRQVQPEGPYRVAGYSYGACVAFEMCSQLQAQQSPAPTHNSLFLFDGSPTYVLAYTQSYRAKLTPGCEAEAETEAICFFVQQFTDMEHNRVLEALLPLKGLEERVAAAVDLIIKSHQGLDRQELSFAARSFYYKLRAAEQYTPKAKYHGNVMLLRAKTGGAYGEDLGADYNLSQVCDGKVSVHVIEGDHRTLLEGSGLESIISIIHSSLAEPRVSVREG

`CCC(=O)N[C@H]1CC[C@@H](N(C)C(=O)c2ccc(-c3ccc(-c4ccn[nH]4)cc3)cc2)C1` [Compound A81, 4′-(2H-pyrazol-3-yl)-biphenyl-4-carboxylic acid methyl-((1R,3S)-3-propionylamino-cyclopentyl)-amide] and `CCC(=O)N[C@H]1CC[C@@H](N(C)C(=O)c2ccc(-c3ccc(C)cc3)cc2)C1` [Compound A73, 4′-methyl-biphenyl-4-carboxylic acid methyl-((1R,3S)-3-propionylamino-cyclopentyl)-amide] cannot be ordered by pIC50: > 6.52 for the first, > 6.52 for the second.

`CCC(=O)N[C@H]1CC[C@@H](N(C)C(=O)c2ccc(-c3ccc(C(=O)OC)cc3F)cc2)C1` [Compound A97, 2-fluoro-4′-[methyl-((1R,3S)-3-propionylamino-cyclopentyl)-carbamoyl]-biphenyl-4-carboxylic acid methyl ester] and `CCC(=O)N[C@H]1CC[C@@H](N(C)C(=O)c2ccc(-c3ccc(C)c(F)c3)cc2)C1` [Compound A66, 3′-fluoro-4′-methyl-biphenyl-4-carboxylic acid methyl-((1R,3S)-3-propionylamino-cyclopentyl)-amide] cannot be ordered by pIC50: > 6.52 for the first, > 6.52 for the second.

First: CC(=O)N[C@@H](C)C(=O)N[C@H]1CC[C@@H](N(C)C(=O)c2ccc(-c3nc4ccccc4o3)cc2)C1 [Compound A47, N-[(1R,3S)-3-((S)-2-acetylamino-propionylamino)-cyclopentyl]-4-benzoxazol-2-yl-N-methyl-benzamide]
Second: CN(C(=O)c1ccc(-c2nc3ccccc3o2)cc1)[C@@H]1CC[C@H](NC(=O)CC2CCCC2)C1 [Compound A44]
The pIC50 of the first is lower: 4.30 to 5.52 for the first, > 6.52 for the second. The second is the more potent here.

`CCC(=O)N[C@H]1CC[C@@H](N(C)C(=O)c2ccc(-c3ccc4c(c3)OCO4)cc2)C1` [Compound A58, 4-benzo[1,3]dioxol-5-yl-N-methyl-N-((1R,3S)-3-propionylamino-cyclopentyl)-benzamide] and `CCC(=O)N[C@H]1CC[C@@H](N(C)C(=O)c2ccc(-c3nc4ccccc4[nH]3)cc2)C1` [Compound A7, 4-(1H-benzimidazol-2-yl)-N-methyl-N-((1R,3S)-3-propionylamino-cyclopentyl)-benzamide] cannot be ordered by pIC50: > 6.52 for the first, > 6.52 for the second.

First: CCC(=O)N[C@H]1CC[C@@H](N(C)C(=O)c2cnc(-c3nc4ccc(Cl)cc4o3)cn2)C1 [Compound A148, 5-(6-chloro-benzoxazol-2-yl)-pyrazine-2-carboxylic acid methyl-((1R,3S)-3-propionylamino-cyclopentyl)-amide]
Second: CCC(=O)N[C@H]1CC[C@@H](N(C)C(=O)c2ccc(-c3nc4ccc(Cl)cc4o3)nn2)C1 [Compound A155, 6-(6-chloro-benzoxazol-2-yl)-pyridazine-3-carboxylic acid methyl-((1R,3S)-3-propionylamino-cyclopentyl)-amide]
The pIC50 of the first is higher: 5.52 to 6.52 for the first, 4.30 to 5.52 for the second.

Compared with `CCC(=O)N[C@H]1CC[C@@H](N(C)C(=O)c2ccc(-c3ccc4[nH]ccc4c3)c(C)c2)C1` [Compound A101, 4-(1H-indol-5-yl)-3,N-dimethyl-N-((1R,3S)-3-propionylamino-cyclopentyl)-benzamide], `CCC(=O)N[C@H]1CC[C@@H](N(C)C(=O)c2ccc(-c3cc(F)c4[nH]ccc4c3)nc2)C1` [Compound A134, 6-(7-fluoro-1H-indol-5-yl)-N-methyl-N-((1R,3S)-3-propionylamino-cyclopentyl)-nicotinamide] is lower in pIC50: > 6.52 for the first, 5.52 to 6.52 for the second.

`CN(C(=O)c1ccc(-c2nc3cccc(F)c3o2)cc1)[C@@H]1CC[C@H](NC(=O)C2CC2)C1` [Compound A50, N-[(1R,3S)-3-(cyclopropanecarbonyl-amino)-cyclopentyl]-4-(7-fluoro-benzoxazol-2-yl)-N-methyl-benzamide] and `CCC(=O)N[C@H]1CC[C@@H](N(C)C(=O)c2cnc(-c3cc(F)c4[nH]ccc4c3)cc2C)C1` [Compound A141, 6-(7-fluoro-1H-indol-5-yl)-4,N-dimethyl-N-((1R,3S)-3-propionylamino-cyclopentyl)-nicotinamide] fall in the same range of pIC50: 5.52 to 6.52 for the first, 5.52 to 6.52 for the second.

— patent US9670142B2, “1,3-diaminocyclopentane carboxamide derivatives” (Merck Patent GmbH, priority 2013, dated 2017)
